pIC50: −log10 of the molar value.
Molecular target: T1, human S1P3 receptor (Homo sapiens, UniProt Q99500)
T1 construct: expressed in transfected cells
Experiment: S1P3 FLIPR Ca2+ assay in T24 cells stably expressing the human S1P3 receptor
Format: cell-based
Conditions: for pIC50: tested over 0.61 nM to 10,000 nM, read-out: IC50, activity potency human S1P3 receptor from FLIPR
Procedure: The compounds of the invention were tested for S1P3 activity using the Flipr assay. The compounds may be assessed for ability to activate or block activation of the human S1P3 receptor in T24 cells stably expressing the human S1P3 receptor. Ten thousand cells/well are plated into 384-well poly-D-lysine coated plates one day prior to use. The growth media for the S1P3 receptor expressing cell line McCoy's 5A medium supplemented with 10% charcoal-treated fetal bovine serum (FBS), 1% antibiotic-antimycotic and 400 μg/mL genetecin. On the day of the experiment, the cells are washed twice Hank's Balanced Salt Solution supplemented with 20 mM HEPES (HBSS/Hepes buffer). The cells are then dye loaded with 2 μM Fluo-4 diluted in the HBSS/Hepes buffer with 1.25 mM Probenecid and incubated at 37° C. for 40 minutes. Extracellular dye is removed by washing the cell plates four times prior to placing the plates in the FLIPR (Fluorometric Imaging Plate Reader, Molecular Devices). Ligands are diluted in HBSS/Hepes buffer and prepared in 384-well microplates. The positive control, Sphingosine-1-phosphate (SIP), is diluted in HBSS/Hepes buffer with 4 mg/mL fatty acid free bovine serum albumin. The FLIPR transfers 12.5 μL from the ligand microplate to the cell plate and takes fluorescent measurements for 75 seconds, taking readings every second, and then for 2.5 minutes, taking readings every 10 seconds. Drugs are tested over the concentration range of 0.61 nM to 10,000 nM. Data for Ca^+2 responses are obtained in arbitrary fluorescence units and not translated into Ca^+2 concentrations. IC50 values are determined through a […] analysis using the Levenburg Marquardt algorithm.

T1 sequence (Q99500 whole entry): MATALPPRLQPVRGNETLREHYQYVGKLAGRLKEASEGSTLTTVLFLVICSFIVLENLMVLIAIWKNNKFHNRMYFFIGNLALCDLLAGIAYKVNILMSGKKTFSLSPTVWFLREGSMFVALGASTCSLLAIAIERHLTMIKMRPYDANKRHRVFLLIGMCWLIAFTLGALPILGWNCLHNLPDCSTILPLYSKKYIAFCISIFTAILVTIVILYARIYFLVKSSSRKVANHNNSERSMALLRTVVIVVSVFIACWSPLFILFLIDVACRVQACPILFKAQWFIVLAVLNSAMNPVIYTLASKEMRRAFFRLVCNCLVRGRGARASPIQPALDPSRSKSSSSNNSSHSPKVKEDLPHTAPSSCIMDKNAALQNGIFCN

Row | % Antagonism, human S1P3 receptor from FLIPR | pIC50 | Structure (SMILES)
1 | 93% | 5.86 | O=C(NC(Nc1ccc([N+](=O)[O-])cc1)C(Cl)(Cl)Cl)c1ccc(Cl)cc1 (stereo not drawn)
2 | 97% | 6.83 | O=C(NC(Nc1ccccc1)C(Cl)(Cl)Cl)c1ccc(Br)cc1 (stereo not drawn)
3 | 96% | 6.56 | COc1ccc(C(=O)NC(Nc2ccc(Cl)cc2)C(Cl)(Cl)Cl)cc1 (stereo not drawn)
4 | 94% | 5.82 | O=C(NC(Nc1ccc(Cl)cc1)C(Cl)(Cl)Cl)c1cccc(Cl)c1 (stereo not drawn)
5 | 94% | 6.31 | COc1ccc(NC(NC(=O)c2ccc(Br)cc2)C(Cl)(Cl)Cl)cc1 (stereo not drawn)
6 | 98% | 6.33 | COc1ccc(C(=O)NC(Nc2ccc(C)cc2)C(Cl)(Cl)Cl)cc1 (stereo not drawn)
7 | 91% | 5.84 | O=C(NC(Nc1ccc(Br)cc1)C(Cl)(Cl)Cl)c1ccc([N+](=O)[O-])cc1 (stereo not drawn)
8 | 76% | 5.94 | Cc1ccc(C(=O)NC(Nc2ccc(Cl)cc2)C(Br)(Br)Br)cc1 (stereo not drawn)
9 | 56% | 5.85 | O=C(NC(Nc1ccccc1C(F)(F)F)C(Cl)(Cl)Cl)c1ccco1 (stereo not drawn)
10 | 98% | 6.44 | O=C(NC(Nc1ccc(Br)cc1)C(Cl)(Cl)Cl)c1ccco1 (stereo not drawn)
11 | 96% | 7.80 | O=C(NC(Nc1ccc(Cl)cc1)C(Cl)(Cl)Cl)c1ccc(Br)cc1 (single isomer, unassigned; (-)) [(−)-4-bromo-N-(2,2,2-trichloro-1-(4-chlorophenylamino)ethyl)benzamide]
12 | 99% | 8.85 | O=C(NC(Nc1ccc(Cl)cc1)C(Cl)(Cl)Cl)c1ccc(Br)cn1 (single isomer, unassigned; (-)) [(−)-5-bromo-N-(2,2,2-trichloro-1-(4-chlorophenylamino)ethyl)picolinamide]
13 | 95% | 6.59 | O=C(NC(Nc1ccc(Cl)cc1)C(Cl)(Cl)Cl)c1ccc(F)c(F)c1 (stereo not drawn) [3,4-difluoro-N-(2,2,2-trichloro-1-(4-chlorophenylamino)ethyl)benzamide]
14 | 100% | 7.01 | O=C(NC(Nc1ccc(Cl)cc1)C(Br)(Br)Br)c1ccc(Br)cc1 (stereo not drawn) [4-bromo-N-(2,2,2-tribromo-1-(4-chlorophenylamino)ethyl)benzamide]
15 | 96% | 7.55 | O=C(NC(Nc1ccc(Cl)cc1)C(Cl)(Cl)Cl)c1ccc(Br)cc1 (stereo not drawn) [4-bromo-N-(2,2,2-trichloro-1-(4-chlorophenylamino)ethyl)benzamide]
16 | 90% | 8.02 | O=C(NC(Nc1ccc(Cl)cc1)C(Cl)(Cl)Cl)c1cc(Br)co1 (stereo not drawn) [4-bromo-N-(2,2,2-trichloro-1-(4-chlorophenylamino)ethyl)furan-2-carboxamide]
17 | 100% | 7.14 | Cc1ccc(NC(NC(=O)c2ccc(Br)cc2)C(Cl)(Cl)Cl)cc1 (stereo not drawn) [4-bromo-N-(2,2,2-trichloro-1-(p-tolylamino)ethyl)benzamide]
18 | 100% | 5.52 | O=C(NC(Nc1ccc(Cl)cc1)C(F)(F)F)c1ccc(Br)cc1 (stereo not drawn) [4-bromo-N-[1-(4-chlorophenylamino)-2,2,2-trifluoro-ethyl]-benzamide]

Row | % Antagonism, human S1P3 receptor from FLIPR | pIC50 | Structure (SMILES)
19 | 95% | 6.96 | O=C(NC(Nc1ccc(Cl)c(F)c1)C(Cl)(Cl)Cl)c1ccc(Br)cc1 (stereo not drawn) [4-bromo-N-[2,2,2-trichloro-1-(4-chloro-3-fluoro-phenylamino)-ethyl]-benzamide]
20 | 100% | 6.84 | O=C(NC(Nc1ccc(Cl)cc1)C(Cl)(Cl)Cl)c1ccc(Cl)cc1 (stereo not drawn) [4-chloro-N-(2,2,2-trichloro-1-(4-chlorophenylamino)ethyl)benzamide]
21 | 99% | 8.33 | O=C(NC(Nc1ccc(Cl)cc1)C(F)(F)F)c1ccc(Br)cn1 (stereo not drawn) [5-Bromo-N-(1-(4-chlorophenylamino)-2,2,2-trifluoroethyl)picolinamide]
22 | 99% | 5.78 | O=C(NC(Nc1ccc(Cl)cc1)C(F)(F)Cl)c1ccc(Br)cn1 (stereo not drawn) [5-Bromo-N-(2-chloro-1-(4-chlorophenylamino)-2,2-difluoroethyl)picolinamide]
23 | 98% | 8.20 | O=C(NC(Nc1ccc(Cl)cc1)C(Cl)(Cl)Cl)c1ccc(Cl)cn1 (stereo not drawn) [5-Chloro-N-(2,2,2-trichloro-1-(4-chlorophenylamino)ethyl)picolinamide]
24 | 99% | 8.70 | O=C(NC(Nc1ccc(Cl)cc1)C(Cl)(Cl)Cl)c1ccc(Br)cn1 (stereo not drawn) [5-bromo-N-(2,2,2-trichloro-1-(4-chlorophenylamino)ethyl)picolinamide]
25 | 95% | 6.15 | O=C(NC(Nc1ccc(Cl)cc1)C(Cl)(Cl)Cl)c1ccc(Br)o1 (stereo not drawn) [5-bromo-furan-2-carboxylic acid (2,2,2-trichloro-1-(4-chloro-phenylamino)-ethyl)-amide]
26 | 97% | 6.61 | O=C(NC(Nc1ccc(Cl)cc1)C(Cl)(Cl)Cl)c1ccc(Br)nc1 (stereo not drawn) [6-bromo-N-(2,2,2-trichloro-1-(4-chlorophenylamino)ethyl)nicotinamide]
27 | 98% | 6.54 | O=C(NC(Nc1ccc(Cl)c(F)c1)C(Cl)(Cl)Cl)c1ccco1 (stereo not drawn) [Furan-2-carboxylic acid (2,2,2-trichloro-1-(4-chloro-3-fluoro-phenylamino)-ethyl)-amide]
28 | 100% | 6.34 | Cc1ccc(NC(NC(=O)c2ccco2)C(Cl)(Cl)Cl)cc1 (stereo not drawn) [Furan-2-carboxylic acid (2,2,2-trichloro-1-p-tolylamino-ethyl)-amide]
29 | 41% | 5.83 | Cc1cccc(C)c1NC(NC(=O)c1ccco1)C(Cl)(Cl)Cl (stereo not drawn) [N-{2,2,2-trichloro-1-[(2,6-dimethylphenyl)amino]ethyl}-2-furamide]
30 | 102% | 5.85 | Cc1ccc(NC(NC(=O)c2ccco2)C(Cl)(Cl)Cl)c(F)c1 (stereo not drawn) [N-{2,2,2-trichloro-1-[(2-fluoro-4-methylphenyl)amino]ethyl}-2-furamide]
31 | 98% | 5.96 | O=C(NC(Nc1ccccc1F)C(Cl)(Cl)Cl)c1ccco1 (stereo not drawn) [N-{2,2,2-trichloro-1-[(2-fluorophenyl)amino]ethyl}-2-furamide]
32 | 100% | 6.44 | O=C(NC(Nc1cccc(F)c1)C(Cl)(Cl)Cl)c1ccco1 (stereo not drawn) [N-{2,2,2-trichloro-1-[(3-fluorophenyl)amino]ethyl}-2-furamide]
33 | 98% | 6.57 | O=C(NC(Nc1ccc(Cl)cc1)C(Cl)(Cl)Cl)c1ccco1 (stereo not drawn) [N-{2,2,2-trichloro-1-[(4-chlorophenyl)amino]ethyl}-2-furamide]
34 | 95% | 5.93 | Cc1cc(F)ccc1NC(NC(=O)c1ccco1)C(Cl)(Cl)Cl (stereo not drawn) [N-{2,2,2-trichloro-1-[(4-fluoro-2-methylphenyl)amino]ethyl}-2-furamide]
35 | 99% | 6.37 | Cc1cc(NC(NC(=O)c2ccco2)C(Cl)(Cl)Cl)ccc1F (stereo not drawn) [N-{2,2,2-trichloro-1-[(4-fluoro-3-methylphenyl)amino]ethyl}-2-furamide]
36 | 99% | 6.30 | O=C(NC(Nc1ccc(F)cc1)C(Cl)(Cl)Cl)c1ccco1 (stereo not drawn) [N-{2,2,2-trichloro-1-[(4-fluorophenyl)amino]ethyl}-2-furamide]

— US8049037B2, “Sphingosine-1-phosphate (S1P) receptor antagonists and methods for use thereof” (Allergan, Inc., priority 2008, dated 2011)
